Results published in article PMC8196787, “Design and Pharmacodynamics of Recombinant Fungus Defensin NZL with Improved Activity against Staphylococcus hyicus In Vitro and In Vivo” (International Journal of Molecular Sciences, 2021).
Converted amounts (≈) assume the structure as drawn. “And” between values parts separate entries of the source, which are not always exact repeats. Equal values may be shown once. Read-outs that look alike come from different tables or passages of the source. Positions of bridges follow the written chain, without caps; N, C: chain ends. Residues, ends and D or L forms follow the SMILES beside them.

Tests used:
[1] = system: TNF-α; test: Mouse peritonitis model, serum cytokine ELISA; format: in vivo
Method: (§1) Likewise, mice (15 mice/group) were injected with the exponential phase S. hyicus NCTC 10350 cells (1 × 10^9 CFU/mL, 1 mL) and treated with 10 mg/kg peptides or 60 mg/kg CRO. After 2 and 24 h post-treatment, sera were collected to test the levels of cytokines using enzyme linked immunosorbent assay (ELISA) kit. To evaluate bacterial translocation, organs were harvest from mice at 24-h post-treatment for colony counting; then, organs were removed from mice at 5 d post-treatment and observed through a light microscope to assess organ injury. The uninfected mice, the treated mice with CRO or PBS were served as the blank control, positive and negative control, respectively.

[2] = system: IL-6; test: Mouse peritonitis model, serum cytokine ELISA; format: in vivo
Method: as §1

[3] = system: IL-1β; test: Mouse peritonitis model, serum cytokine ELISA; format: in vivo
Method: as §1

[4] = system: S. hyicus NCTC 10350; test: Mouse peritonitis model, bacterial translocation; format: in vivo; conditions: 24 h post-treatment, mean, n = 5
Method: as §1

[5] = system: S. hyicus NCTC 10350; test: Time-killing curves; format: cell-based
Method: Time-kill curves were performed to assess the bactericidal rates of peptides against S. hyicus NCTC 10350 [25]. […] The samples were taken at regular intervals for colony counting. Cells treated with PBS and CRO were used as the negative control and positive control.

[6] = system: S. aureus ATCC 25923; test: microbe, parasite or virus in culture; format: cell-based; conditions: MHB, 37 °C, 16–20 h, triplicate
Method: (§2) The microbroth dilution method was used to evaluate the MIC values of new derivative peptides. […] The MIC value was defined as the lowest concentration where no visible bacteria growth occurred after overnight incubation. CRO was used as the positive control. All assays were conducted in triplicate.

[7] = system: S. aureus ATCC 43300; test: microbe, parasite or virus in culture; format: cell-based; conditions: read-out: MIC
Method: as §2

[8] = system: S. hyicus ACCC 61734; test: microbe, parasite or virus in culture; format: cell-based; conditions: for MIC: S. hyicus ACCC 61734 (clinical strain), microbroth dilution, MHB, 37 °C, 16–20 h, triplicate, read-out: MIC
Method: as §2

[9] = system: S. hyicus NCTC 10350; test: microbe, parasite or virus in culture; format: cell-based; conditions: MHB, 37 °C, 16–20 h, triplicate
Method: as §2

[10] = system: S. hyicus NCTC 10350; test: Mouse peritonitis model, survival; format: in vivo; conditions: 7 days
Method: The mice (6 mice/group) were intraperitoneally infected with the exponential phase S. hyicus NCTC 10350 cells (1 × 10^9 CFU/mL, 1 mL) to establish a mouse peritonitis model. […] Survival of mice was recorded daily for 7 days.

[11] = system: intracellular S. hyicus NCTC 10350 in Hacat cells; format: cell-based; conditions: 24 h treatment, mean, n = 3; for Killing rate of intracellular S. hyicus: 1000× MIC
Method: Hacat cells (2.5 × 10^5 cells/mL) were dispensed into a 12-well plate for 24 h. Besides, the mid-log phase S. hyicus NCTC 10350 (2.5 × 10^7 CFU/mL) were coincubated with Hacat cells for 0.5 h. Then, lysostaphin was supplemented to kill extracellular bacteria. Hereafter, cells were treated with peptides or CRO for 24 h and lysed with lysis buffer. The intracellular bacteria were processed for colony counting.

[12] = system: mouse erythrocytes; test: Hemolysis; format: cell-based; conditions: at 256 μg/mL; 8% (v/v) mouse erythrocytes in 0.9% NaCl, 37 °C, 1 h, 540 nm; n = 3
Method: The hemolytic activity of peptides against fresh mouse erythrocytes was evaluated as described previously. In brief, 8% (v/v) erythrocyte solution in 0.9% NaCl was mixed with peptide solution (1–256 μg/mL) in an equal volume; then the mixtures were incubated at 37 °C for 1 h, centrifuged at 5000 rpm for 5 min and measured at 540 nm on a microplate reader. The absorbance of 0.9% NaCl (A0) and 0.1% Triton X-100 (A100) was used as controls. The hemolysis percentages of peptide were calculated by the following equation: Hemolysis (%) = [(A − A0)/(A100 − A0)] × 100.

[13] = system: S. hyicus NCTC 10350; test: Mouse peritonitis model, organ injury by light microscope; format: in vivo; conditions: 10 mg/kg, organs harvested at 5 d
Method: as §1

[14] = system: S. hyicus NCTC 10350; test: Thermal stability, inhibition zone assay; format: physicochemical; conditions: 1 h, 64 μg/mL, inhibition zone against S. hyicus NCTC 10350, triplicate
Method: (§3) The stability of NZL or NZ2114 against S. hyicus NCTC 10350 was conducted by inhibition zone assays. To evaluate the thermal stability, 64 μg/mL NZL or NZ2114 was incubated at different temperatures (20 °C, 40 °C, 60 °C, 80 °C, and 100 °C) for 1 h. Besides, aliquots of NZL or NZ2114 were dissolved in different pH buffers in a range from 2.0 to 10.0 at 37 °C for 3 h to analyze the pH stability. NZL or NZ2114 was mixed with pepsin or trypsin solutions at a ratio of 10:1 (w/w) to determine the protease stability. The untreated peptides and buffers alone were used as positive controls and negative controls, respectively. All assays were conducted in triplicate.

[15] = system: S. hyicus NCTC 10350; test: pH stability, inhibition zone assay; format: physicochemical; conditions: 3 h, triplicate
Method: as §3

[16] = system: Hacat cells; test: Cytotoxicity, MTT assay; format: cell-based; conditions: within 256 μg/mL (1–256 μg/mL), n = 3
Method: The cytotoxicity of peptides toward Hacat cells was determined by the 3-(4,5-dimethylthiazol-2-yl)-2,5-diphenyltetrazolium bromide (MTT) assay according to a previous study.

[17] = microbroth dilution, read-out: MIC

CO/N=C(\C(=O)N[C@@H]1C(=O)N2C(C(=O)O)=C(CSc3nc(=O)c(=O)[nH]n3C)CS[C@H]12)c1csc(N)n1 [CRO, ceftriaxone, reference compound]
Serum level of TNF-α ([1]; 60 mg/kg, 2 h after treatment): 233.16 pg/mL
Serum level of TNF-α ([1]; 60 mg/kg, 24 h after treatment): 3.43 pg/mL
Serum level of IL-6 ([2]; 60 mg/kg, 2 h after treatment): 981.56 pg/mL
Serum level of IL-6 ([2]; 60 mg/kg, 24 h after treatment): 85.74 pg/mL
Serum level of IL-1β ([3]; 60 mg/kg, 2 h after treatment): 94.75 pg/mL
Serum level of IL-1β ([3]; 60 mg/kg, 24 h after treatment): 11.60 pg/mL
Bacterial counts in blood ([4]; 60 mg/kg): 1.02 Log10 CFU/0.1 g
Bacterial counts in kidneys ([4]; 60 mg/kg): 4.69 Log10 CFU/0.1 g
Bacterial counts in livers ([4]; 60 mg/kg): 4.35 Log10 CFU/0.1 g
Bacterial counts in lungs ([4]; 60 mg/kg): 5.21 Log10 CFU/0.1 g
Bacterial counts in spleens ([4]; 60 mg/kg): 5.19 Log10 CFU/0.1 g
Bacterial count at regrowth ([5]; 2× MIC, at 24 h): 5.65 Log10 CFU/mL
MIC ([6]; Staphylococcus aureus, ATCC25923, microbroth dilution, read-out: MIC): 4 µg/mL and 6.04 µM
MIC ([7]; Staphylococcus aureus, ATCC43300, S. aureus ATCC 43300, microbroth dilution, MHB, 37 °C, 16–20 h, triplicate): 12.1 µM
MIC ([7]; Staphylococcus aureus, ATCC43300): 8 mg/L
MIC ([8]; Staphylococcus hyicus, ACCC61734): 4 µg/mL and 6.04 µM
MIC ([9]; Staphylococcus hyicus, NCTC10350, microbroth dilution, read-out: MIC): 8 µg/mL and 12.1 µM
Survival rate ([10]; 30 mg/kg and 60 mg/kg i.p. at 2 h and 8 h post-infection, compared with NZL 5 mg/kg and 10 mg/kg): identical survival rates with NZL
Decrease of intracellular S. hyicus ([11]; 1× MIC, colony counting): 88.53%
Decrease of intracellular S. hyicus ([11]; 5× MIC): 89.25%
Decrease of intracellular S. hyicus ([11]; 10× MIC): 83.87%
Killing rate of intracellular S. hyicus [11]: 97.6%

CC[C@H](C)[C@@H]1NC(=O)[C@H](CO)NC(=O)[C@H](CCCCN)NC(=O)[C@@H]2CSSC[C@@H](C(=O)N[C@@H](Cc3ccc(O)cc3)C(=O)O)NC(=O)[C@H](CCCCN)NC(=O)[C@@H]3CSSC[C@H](NC(=O)[C@H](CCC(N)=O)NC(=O)[C@H]([C@@H](C)CC)NC(=O)[C@H](CC(=O)O)NC(=O)[C@H](CC(=O)O)NC(=O)[C@H](CCC(=O)O)NC(=O)[C@H](CO)NC(=O)[C@H](Cc4c[nH]c5ccccc45)NC(=O)[C@@H]4CCCN4C(=O)CNC(=O)[C@H](CC(N)=O)NC(=O)[C@@H](NC(=O)CNC(=O)[C@H](Cc4ccccc4)NC(=O)CN)CSSC[C@H](NC(=O)[C@H](Cc4ccc(O)cc4)NC(=O)CNC(=O)CNC(=O)[C@H](CCCCN)NC(=O)[C@H](Cc4ccc(O)cc4)NC(=O)CNC(=O)[C@H](CCCCN)NC1=O)C(=O)N[C@@H](C)C(=O)N[C@@H](CCCCN)C(=O)NCC(=O)NCC(=O)N[C@@H](Cc1ccccc1)C(=O)N[C@@H](C(C)C)C(=O)N3)C(=O)N[C@@H](Cc1c[nH]cn1)C(=O)N[C@@H](CC(N)=O)C(=O)N[C@@H](Cc1c[nH]cn1)C(=O)N2 [NZL] (H-GFGCNGPWSEDDIQCHNHCKSIKGYKGGYCAKGGFVCKCY-OH; disulfide 4-30, 15-37, 19-39; N-terminus and C-terminus assumed)
Serum level of TNF-α ([1]; 10 mg/kg, 2 h after treatment): 184.14 pg/mL
Serum level of TNF-α ([1]; 10 mg/kg, 24 h after treatment): 5.75 pg/mL
Serum level of IL-6 ([2]; 10 mg/kg, 2 h after treatment): 1029.28 pg/mL
Serum level of IL-6 ([2]; 10 mg/kg, 24 h after treatment): 44.92 pg/mL
Serum level of IL-1β ([3]; 10 mg/kg, 2 h after treatment): 74.00 pg/mL
Serum level of IL-1β ([3]; 10 mg/kg, 24 h after treatment): 24.02 pg/mL
Maximum hemolysis [12]: 1.11%
Bacterial counts in blood ([4]; 10 mg/kg): 0.16 Log10 CFU/0.1 g
Bacterial counts in kidneys ([4]; 10 mg/kg): 0.25 Log10 CFU/0.1 g
Bacterial counts in livers ([4]; 10 mg/kg): 0.34 Log10 CFU/0.1 g
Bacterial counts in lungs ([4]; 10 mg/kg): 0.62 Log10 CFU/0.1 g
Bacterial counts in spleens ([4]; 10 mg/kg): 0.58 Log10 CFU/0.1 g
Organ injury (livers, spleens, lungs, kidneys) [13]: apparently less damaged
Thermal stability ([14]; 20 to 80 °C): good thermal stability
Activity after heating ([14]; 100 °C): no activity
Reduction of bacterial counts ([5]; 1× MIC, MHB): 7.37 Log10 CFU/mL
Time within which S. hyicus NCTC 10350 cells were killed completely ([5]; 2× and 4× MIC, 1 × 10^5 CFU/mL in MHB, colony counting): ≤ 8 h
pH stability ([15]; pH 2 to 10, 37 °C, inhibition zone against S. hyicus NCTC 10350): retained strong stable activity
Activity in the acidic environment ([15]; pH 4, 37 °C, inhibition zone against S. hyicus NCTC 10350, relative to untreated peptide): 94%
MIC ([6]; microbroth dilution): 4 µg/mL
MIC [6, 17]: 0.92 µM
MIC ([7]; S. aureus ATCC 43300, microbroth dilution, MHB, 37 °C, 16–20 h, triplicate): 0.46 µM
MIC [8]: 0.23 µM (≈ 1 µg/mL)
Change of MIC against S. hyicus ACCC 61734 compared with NZ2114 ([8]; clinical strain, NZL vs NZ2114): four-fold
MIC ([9]; microbroth dilution): 4 µg/mL
MIC [9, 17]: 0.92 µM
Survival rate ([10]; 5 mg/kg i.p. at 2 h and 8 h post-infection, ICR mice, S. hyicus NCTC 10350 10^9 CFU i.p., 6 mice/group): 50%
Survival rate ([10]; 10 mg/kg i.p. at 2 h and 8 h post-infection, ICR mice, S. hyicus NCTC 10350 10^9 CFU i.p., 6 mice/group): 83.3%
Minimum cell viability [16]: 60.28%
Decrease of intracellular S. hyicus ([11]; 10× MIC): 84.95%
Killing rate of intracellular S. hyicus [11]: 99.96%
